Format in all cases: in vivo
For assay [1], the system named is Myzus persicae. Briefly: Myzus persicae spray test (MYZUPE), Chinese cabbage leaf discs. As to conditions: foliar, 120 h. As for the experimental part: Myzus persicae—Spray Test [table] To produce a suitable active ingredient formulation, 1 part by weight of active ingredient is dissolved with the specified parts by weight of solvent and made up to the desired concentration with water containing an emulsifier concentration of 1000 ppm. To produce further test concentrations, the formulation is diluted with emulsifier-containing water. Discs of Chinese cabbage leaves (Brassica pekinensis) infested by all stages of the green peach aphid (Myzus persicae) are sprayed with an active ingredient formulation of the desired concentration. After 5 days, the efficacy in % is determined. 100% means that all the aphids have been killed; 0% means that no aphids have been killed. Myzus persicae—Spray Test (MYZUPE) [table] To produce a suitable active ingredient formulation, 1 part by weight of active ingredient is dissolved with the specified parts by weight of solvent and made up to the desired concentration with water containing an emulsifier concentration of 1000 ppm. To produce further test concentrations, the formulation is diluted with emulsifier-containing water. Discs of Chinese cabbage leaves (Brassica pekinensis) infested by all stages of the green peach aphid (Myzus persicae) are sprayed with an active ingredient formulation of the desired concentration. After the desired period of time, the efficacy in % is determined. 100% means that all the aphids have been killed; 0% means that no aphids have been killed.

The test system of a further assay is Lucilia cuprina. Put plainly: Lucilia cuprina test. As to conditions: after 2 days, L1 larvae. As for the experimental part: Lucilia cuprina Test Solvent: dimethyl sulfoxide To produce a suitable active ingredient formulation, 10 mg of active ingredient are mixed with 0.5 ml of dimethyl sulfoxide, and the concentrate is diluted with water to the desired concentration. About 20 L1 larvae of the Australian sheep blowfly (Lucilia cuprina) are transferred into a test vessel containing minced horsemeat and the active ingredient formulation of the desired concentration. After 2 days, the kill in % is determined. 100% means that all the larvae have been killed; 0% means that no larvae have been killed.

The test system of assay [2] is Phaedon cochleariae. Briefly: Phaedon cochleariae spray test, Chinese cabbage leaf discs. As to conditions: foliar, 168 h, application rate 100 g/ha, after 7 days, larvae, read-out: efficacy. As for the experimental part:
Phaedon cochleariae—Spray Test
To produce a suitable active ingredient formulation, 1 part by weight of active ingredient is dissolved with the specified parts by weight of solvent and made up to the desired concentration with water containing an emulsifier concentration of 1000 ppm. To produce further test concentrations, the formulation is diluted with emulsifier-containing water.
After 7 days, the efficacy in % is determined. 100% means that all the beetle larvae have been killed; 0% means that no beetle larvae have been killed.

In another assay the test system is Nilaparvata lugens. Put plainly: Nilaparvata lugens spray test (NILALU). As to conditions: 96 h, 500 g of ai/ha, 4 dat, read-out: % efficacy. As for the experimental part:
Nilaparvata lugens—Spray Test (NILALU)
(§1) To produce a suitable active ingredient formulation, 1 part by weight of active ingredient is dissolved with the specified parts by weight of solvent and made up to the desired concentration with water containing an emulsifier concentration of 1000 ppm. To produce further test concentrations, the formulation is diluted with emulsifier-containing water. If the addition of ammonium salts or/and penetrants is required, these are each added in a concentration of 1000 ppm to the formulation solution.
Rice plants (Oryza sativa) are sprayed with an active ingredient formulation of the desired concentration and then populated with larvae of the brown planthopper (Nilaparvata lugens).
[…], the efficacy in % is determined. 100% means that all of the planthoppers have been killed; 0% means that none of the planthoppers have been killed.

In assay [3] the test system is Myzus persicae. Put plainly: Myzus persicae oral test. As to conditions: 120 h, application rate 4 ppm, after 5 days, read-out: efficacy. As for the experimental part: Myzus persicae—Oral Test Solvent: 100 parts by weight of acetone To produce a suitable active ingredient formulation, 1 part by weight of active ingredient is dissolved with the stated parts by weight of solvent and made up to the desired concentration with water. 50 μl of the active ingredient formulation are transferred into microtitre plates and made up to a final volume of 200 μl with 150 μl of IPL41 insect medium (33%+15% sugar). Subsequently, the plates are sealed with parafilm, which a mixed population of green peach aphids (Myzus persicae) within a second microtitre plate is able to puncture and imbibe the solution. After 5 days, the efficacy in % is determined. 100% means that all the aphids have been killed; 0% means that no aphids have been killed.

Assay [4] relates to Spodoptera frugiperda. Put plainly: Spodoptera frugiperda drench test (SPODFR D). As to conditions: soil, 336 h, 14 dat, read-out: % efficacy. The method, then:
Spodoptera frugiperda—Drench Test (SPODFR D) [table] To produce a suitable active ingredient formulation, 1 part by weight of active ingredient is mixed with the specified amounts of solvent and emulsifier, and the concentrate is diluted with water to the desired concentration, it being necessary to take into account the volume of soil which is drenched. It should be ensured that a concentration of 40 ppm of emulsifier in the soil is not exceeded. To produce further test concentrations, water is used for dilution. Maize plants (Zea mays) in pots of soil are watered with an active ingredient formulation of the desired concentration and infected with caterpillars of the armyworm (Spodoptera frugiperda). After the desired time, the kill in % is determined. 100% means that all caterpillars have been killed; 0% means that none of the caterpillars have been killed.

In assay [5] the test system is Spodoptera frugiperda. Briefly: Spodoptera frugiperda spray test, maize leaf discs. As to conditions: application rate 100 g/ha, after 7 days, caterpillars. The method, then:
Spodoptera frugiperda—Spray Test [table] To produce a suitable active ingredient formulation, 1 part by weight of active ingredient is dissolved with the specified parts by weight of solvent and made up to the desired concentration with water containing an emulsifier concentration of 1000 ppm. To produce further test concentrations, the formulation is diluted with emulsifier-containing water. Leaf discs of maize (Zea mays) are sprayed with an active ingredient formulation of the desired concentration and, after drying, populated with caterpillars of the armyworm (Spodoptera frugiperda). After 7 days, the efficacy in % is determined. 100% means that all the caterpillars have been killed; 0% means that no caterpillar has been killed.

The subject of assay [6] is Phaedon cochleariae. Briefly: Phaedon cochleariae spray test (PHAECO), cabbage leaves. As to conditions: 168 h, 7 dat, read-out: % efficacy. As for the experimental part: Phaedon cochleariae—Spray Test (PHAECO)
Solvent: 14 parts by weight of dimethylformamide
Emulsifier: alkylaryl polyglycol ether
as §1
Cabbage leaves (Brassica oleracea) are sprayed with an active ingredient formulation of the desired concentration and populated with larvae of the mustard beetle (Phaedon cochleariae).
After the desired time, the kill in % is determined. 100% means that all the beetle larvae have been killed; 0% means that no beetle larvae have been killed.

The subject of the next assay is Meloidogyne incognita. Put plainly: Meloidogyne incognita test. As to conditions: application rate 20 ppm, after 14 days, formation of galls on lettuce. The method, then: Meloidogyne incognita Test Solvent: 125.0 parts by weight of acetone To produce a suitable active ingredient formulation, 1 part by weight of active compound is mixed with the stated amount of solvent and the concentrate is diluted to the desired concentration with water. Vessels are filled with sand, active compound solution, an egg/larvae suspension of the southern root-knot nematode (Meloidogyne incognita) and lettuce seeds. The lettuce seeds germinate and the plants develop. The galls develop on the roots. After 14 days, the nematicidal efficacy in % is determined by the formation of galls. 100% means that no galls were found; 0% means that the number of galls on the treated plants corresponds to the untreated control.

The test system of a further assay is Ctenocephalides felis. Briefly: Ctenocephalides felis oral test. As to conditions: application rate 100 ppm, after 2 days. As for the experimental part: Ctenocephalides felis—Oral Test Solvent: dimethyl sulfoxide To produce a suitable active ingredient formulation, 10 mg of active ingredient are mixed with 0.5 ml of dimethyl sulfoxide. Dilution with citrated cattle blood gives the desired concentration. About 20 unfed adult cat fleas (Ctenocephalides felis) are placed into a chamber which is closed at the top and bottom with gauze. A metal cylinder whose bottom end is closed with parafilm is placed onto the chamber. The cylinder contains the blood/active ingredient formulation, which can be imbibed by the fleas through the parafilm membrane. After 2 days, the kill in % is determined. 100% means that all of the fleas have been killed; 0% means that none of the fleas have been killed.

`CCS(=O)(=O)c1ccc(-n2ncn(-c3ccc(Cl)cc3)c2=O)nc1-c1nc2cc(C(F)(F)F)nc(C)c2n1C` [Example I-001]: the Emax at 20 g/ha with Myzus persicae [1] (MYZUPE, 20 g of ai/ha, 5 dat, read-out: % efficacy) was 90%. The Emax at 100 g/ha in the assay with Myzus persicae [1] (MYZUPE, 100 g of ai/ha, 5 dat, read-out: % efficacy) was 90%. Also, the pest or weed control at 20 g/ha with Myzus persicae [1] (application rate 20 g/ha, after 5 days, read-out: efficacy) worked out at 90%. In addition, the pest or weed control at 100 g/ha worked out at 90% with Myzus persicae [1] (application rate 100 g/ha, after 5 days, read-out: efficacy) and 100% in the assay on Phaedon cochleariae [2]. Moreover, the “efficacy (kill)” value in the assay with Lucilia cuprina (application rate 20 ppm), in the assay on Lucilia cuprina (application rate 100 ppm) and in the assay with Ctenocephalides felis was 100% throughout. Moreover, in the assay with Nilaparvata lugens, the Emax at 500 g/ha amounted to 60%. Also, the pest or weed control at 4 ppm in the assay with Myzus persicae [3] amounted to 90%. Also, the Emax at 20 ppm in the assay with Spodoptera frugiperda [4] came to 60%. In the assay with Spodoptera frugiperda [5], the efficacy was 100%. For the same molecule, in the assay on Phaedon cochleariae [6], the Emax at 0.8 ppm was 100%. For the same molecule, in the assay on Meloidogyne incognita, the nematicidal efficacy was 90%.

For the origin of these results see patent publication US20200236940A1, “2-(HET)ARYL-SUBSTITUTED FUSED HETEROCYCLE DERIVATIVES AS PESTICIDES” (Bayer Aktiengesellschaft, priority 2017, published 2020).
